# Laboratory results taken from US12281335B2, “Methods and compositions for delivery of viral vectors across the blood-brain barrier” (priority 2017, dated 2025).
# “Also recorded” adds a separate entry of the source. Ends that are not written are not given here.
# Legend:
# C57BL/6 mice [1] = experiment: Measurement of AAV genome copy number in tissue; assay type: in vivo, mouse; settings: 0.1 mM peptides + 5E+10 vg AAV8/luc; vs AAV8 only
# Description: Measurement of AAV genome copy number in tissue. Total gDNA from different minced tissues was isolated with the DNeasy blood & tissue kit (Qiagen, USA). Luciferase gene was measured by qPCR assay. Mouse-lamin gene served as an internal control.
# C57BL/6 mice [2] = experiment: In vivo luciferase imaging after retro-orbital injection of AAV8/luc with peptides; set-up: species or system mouse; settings: 0.1 mM peptides + 5E+10 vg AAV8/luc, retro-orbital vein, 7th day
# Description: Animal study. […] Mice were administered with AAV8/Luc incubated with peptides via retro-orbital injection. Luciferase expression was imaged at the indicated time points using a Xenogen IVIS Lumina (Caliper Lifesciences, Waltham, MA) following intraperitoneal injection of D-luciferin substrate (Nanolight Pinetop, AZ). Bioluminescent images were analyzed using Living Image (PerkinElmer, Waltham, MA). At various time points after injection, blood was collected from the retro-orbital plexus, and the viral titers were tested by qPCR.
# C57BL/6 mice [3] = experiment: Quantitation of luciferase expression in tissues; assay type: in vivo, mouse; settings: 0.1 mM peptides + 5E+10 vg AAV8/luc
# Description: Quantitation of luciferase expression in tissues. Animals utilized for imaging studies were sacrificed after one-week post imaging work, and the tissues of the heart, liver, spleen, skeletal muscle and brain were collected, and were minced and homogenized in passive lysis buffer. Then the lysates were centrifuged at 10,000 rpm for 5 minutes to remove cellular debris. Supernatant was transferred to 96-well plates for luciferase activity analysis as described above. Total protein concentration in tissue lysates was measured using the Bradford assay (Bio-Rad Laboratories, Philadelphia, PA).
# [4] = test system: human transferrin binding to AAV8 virions; experiment: AAV8 competitive binding assay; settings: pre-incubation with AAV8, then human transferrin; pull down with transferrin antibody, qPCR
# Description: AAV8 competitive binding assay. For THR competitive binding analysis, 10 ul of Protein G resin (Thermo, USA) per system was incubated with 1 ug of human transferrin antibody or goat IgG antibody control at 4° C. overnight. […] After that, the mixture was added to the complex of protein G resin and transferrin antibody and incubated at 4° C. overnight. Finally, the complex was stringently washed three times with cold DPBS. DNA from the complex was extracted and applied for qPCR to determine AAV genome copy number per cell using luc specific primers.
# To investigate whether THR also binds to the same location of AAV8 virions as human serum proteins, we performed a competitive assay. […] The transferrin antibody was used to pull down transferrin bound AAV8 virions and AAV8 gene copy number was measured by qPCR.
# [5] = test system: HEK293 cells or Huh7 cells; experiment: In vitro transduction assay, AAV8/luc with peptides; assay type: cell-based, human; settings: 10000 vg AAV8/luc incubated with peptides 2 h at 4° C.; both cell lines; 48 h; vs AAV8 only
# Description: In vitro transduction assay. At least 4-5 h prior to AAV transduction, cells were seeded in 48-well plates with a density of 1E+05 cells each well. Cells were infected with 1E+04 vector genomes (vg) of AAV8/luc virus per cell and harvested after 48 h. Luciferase activity was measured following manufacturer's instruction (Promega, Madison, WI).
# The complex of AAV8 and peptides influences AAV8 transduction in vitro and in vivo. To identify the potential and functional peptides that enhanced AAV8 transduction, we screened several reported peptides as shown in Table 5 and Table 6. First, we tested the cytotoxicity of peptides at different concentrations on cells. […] After that, we performed the transduction assay in vitro. We incubated the 10000 vg AAV8/luc and peptides for 2 h at 4° C., and then applied the mixture to HEK293 cells or Huh7 cells. After 48 h, the cell lysate was collected for luciferase analysis.
# C57BL mice [6] = experiment: Systemic administration of AAV6 and AAV8 pre-incubated with PB5-3, imaging; assay type: in vivo, mouse; settings: pre-incubated with PB5-3, days 5 and 10
# Description: AAV/luc vectors from serotypes 6 or 8 at a dose of 5×10^10 or 1×10^10 particles, respectively, were incubated with PB5-3 for 2 hrs at 4° C. The complex was injected into C57BL mice via retro-orbital vein. At day 5 and 10 post AAV injection, mouse imaging was carried out. Representative imaging is shown from five mice.
# No effect of PB5-3 peptide on AAV brain transduction from other serotypes after systemic administration. To confirm the result in vitro that PB5-3 peptide could not efficiently bind to other AAV serotypes except for AAV9, we administered AAV6 and AAV8 vectors pre-incubated with PB5-3 in C57BL mice via retro-orbital injection. At days 5 and 10 post AAV application, mouse imaging was carried out.
# different cell types = settings: different concentrations, 48 hrs
# Description: 1×10^4 cells were incubated with PB5-3 peptide at different concentrations for 48 hrs. Cell proliferation was analyzed with MTT assay (FIG. 14A). AAV9/luc vectors at a dose of 1×10^9 particles were incubated with PB5-3 peptide for 2 hrs at 4° C., then the mixture was applied to different cells and incubated for 2 days. Luciferase expression from cell lysate was detected (FIG. 14B). For comparison, PB5-3 was added to cells just before infection of AAV9 (FIG. 14C).
# [7] = test system: Huh7, Hela, C2C12 and hCMEC/D3; experiment: AAV9/luc transduction in cell lines with PB5-3; assay type: cell-based
# Description: Cell proliferation was analyzed with MTT assay (FIG. 14A). […] Luciferase expression from cell lysate was detected (FIG. 14B).
# PB5-3 peptide specifically enhances AAV9 transduction in cell lines. Next, we examined the effect of PB5-3 on AAV9 transduction in vitro. […] Consistent with previous studies, the direct interaction of peptide and AAV virions is required to enhance AAV9 transduction.
# AAV9 virions = experiment: Phage binding to AAV-coated plate
# Description: FIGS. 13A-13B show binding specificity of PB5-3 peptide to AAV9. After coating with 1×10^10 particles of AAV9, different phages at a dose of 1×10^11 were added to a 96 well plate and incubated. After washing, the number of bound phages was detected (FIG. 13A). A 96 well-plate was coated with 1×10^10 particles of AAV vectors/well from serotypes 6, 8 and 9 overnight. After washing, 1×10^11 of PB5-3 phages were added and incubated at room temperature for 2 hrs. After washing, the phage particles were detected (FIG. 13B).
# To study the AAV9 virion binding affinity of the peptides isolated from phage, first we compared the affinity of the different peptides to AAV9 virions. After incubation of an AAV9-coated plate with different phages and several washings, much more PB5-3 phages were detected to bind to AAV9 than PB5-5 and PB5-14 phages (FIG. 13A). […] We coated the plate with AAV virions from different serotypes. After incubation with PB5-3 phages, the number of phages on the AAV9-coated plate was much higher than that with AAV6 and AAV8 (FIG. 13B).
# Huh7 or hCMEC/D3 cells = experiment: Transduction of AAV serotypes 2, 6 and 8 with PB5-3 in vitro; assay type: cell-based; settings: incubated with PB5-3; either cell line
# Description: 1×10^9 particles of AAV/luc vectors from serotype 2 (FIG. 15A), 6 (FIG. 15B), and 8 (FIG. 15C) were incubated with PB5-3 peptide for 2 hr at 4° C. The complex of AAV vector and peptide was applied to Huh7 or hCMEC/D3 cells. Two days later, the lysate from these cells was harvested for luciferase analysis.
# Analysis of enhancement of AAV transduction from other serotypes with PB5-3 peptide in vitro. To further investigate the specific effect of PB5-3 on AAV9, we tested the effect of PB5-3 on AAV transduction from other serotypes. AAV vectors from serotypes 2, 6, and 8 were incubated with PB5-3 and then the mixture was applied to Huh7 or hCMEC/D3 cells. The transduction was detected two days later after AAV infection.
# C57BL mice [8] = experiment: Systemic administration of AAV9/PB5-3 complex, imaging and genome copy number; assay type: in vivo, mouse
# Description: 1×10^10 particles of AAV9/luc vectors were incubated with PB5-3 for 2 hr at 4° C. The complex was injected into C57BL mice via the retro-orbital vein. At indicated time points, mouse imaging was performed. (FIG. 16A) representative imaging. (FIG. 16B) luciferase expression. (FIG. 16C) AAV genome copy number. The results represented the average and standard derivation from five mice.
# PB5-3 peptide enhances AAV9 transduction in the brain after systemic administration. To study the effect of PB5-3 peptide on AAV9 transduction in mice, we injected AAV9 vectors pre-incubated with PB5-3 peptide into C57BL mice via the retro-orbital vein. At days 1, 3, 7, and 14 post AAV administration, mouse imaging was taken. […] Transduction in the liver was similar regardless of AAV9 pre-incubation with PB5-3 peptide (FIG. 16B). Consistent to tissue transgene expression, AAV genome copy number in the brain but not in other tissues was higher in mice receiving the complex of AAV9 and PB5-3 (FIG. 16C).
# [9] = test system: BBB hCMEC/D3 endothelial cells; experiment: In vitro endothelial cell permeability analysis of AAV9; assay type: cell-based, human; settings: AAV9 pre-incubated with PB5-3 vs AAV9 with DPBS
# Description: Media in the basal chamber was collected at indicated time points and viral genome copy number was analyzed by qPCR. All treatments were performed in triplicate. *p<0.05 when compared to cells with the AAV9 only.
# PB5-3 peptide enhances AAV9 permeability in vitro. To study whether PB5-3 affects the ability of AAV9 to cross the endothelial cell layer, we performed an in vitro endothelial cell permeability analysis in a well-defined system using BBB hCMEC/D3 endothelial cells. Two groups were designed: an AAV9 vector incubated with DPBS (AAV9 cohort); and an AAV9 vector incubated with PB5-3 (AAV9-PB5-3 cohort). […] These observations indicate that the interaction of AAV9 with the PB5-3 peptide increased the ability of AAV9 to cross the BBB.
Substance,AAV genome copy number in the brain (C57BL/6 mice [1]),transgene expression in the liver (imaging) (C57BL/6 mice [2]),AAV8 brain transduction (luc expression and genome number) (C57BL/6 mice [3]),AAV8 transduction (luciferase) [5],also measured
(LRKLRKRLL)2 (LRKLRKRLLLRKLRKRLL) [ApoE (159-167)2],much higher,higher,increased AAV8 transduction in the brain,,
"FILMVWAPFI [PEPXT-1, control peptide, neutral polarity]",,,,,inhibition of transferrin binding to AAV8 [4]: no effect
GRKKRRQRRRPPQ [HIV-1 TAT (48-60)],,higher,no effect on brain transduction,significantly enhanced AAV8 transduction,AAV8 liver transduction (C57BL/6 mice [3]): increased AAV8 liver transduction
KKALLALALHHLAHLALALKKAC [LAH4],,higher,no effect on brain transduction,significantly enhanced AAV8 transduction,AAV8 liver transduction (C57BL/6 mice [3]): increased AAV8 liver transduction
QFAALPVRAHYG-NH2 [PB5-3],,,,,"brain transduction from AAV6 and AAV8 (C57BL mice [6]): No brain transduction enhancement; also recorded: no effect; toxicity (MTT assay) (different cell types): no toxicities; AAV9 transduction, PB5-3 incubated with AAV9 virions ([7]; 2 hrs at 4° C. pre-incubation, Huh7, Hela, C2C12 and hCMEC/D3): enhanced transduction; also recorded: specifically enhances AAV9 transduction in vitro; AAV9 transduction, PB5-3 without incubation ([7]; PB5-3 added to cells just before infection of AAV9): failed to increase AAV9 transduction; number of phages on AAV9-coated plate vs other serotypes (AAV9 virions; vs AAV6 and AAV8 coated plates): much higher; phages bound to AAV9-coated plate (AAV9 virions; vs PB5-5 and PB5-14 phages): much more; transduction of AAV2, 6 or 8 (Huh7 or hCMEC/D3 cells): No enhanced transduction; also recorded: no enhancement; AAV9 transduction in brain (imaging) (C57BL mice [8]; 1×10^10 particles AAV9/luc pre-incubated with PB5-3, retro-orbital vein): specifically enhanced AAV9 ability to cross the BBB and increase brain transduction; also recorded: high transduction in brain tissues; AAV genome copy number in the brain (C57BL mice [8]; complex of AAV9 and PB5-3, not in other tissues): higher; AAV9 transduction in the liver (C57BL mice [8]; with vs without PB5-3 pre-incubation): similar; endothelial cell permeability of AAV9 [9]: significant increase in the endothelial cell permeability; also recorded: increases AAV9 permeability"
TFFYGGSRGKRNNFKTEEY-OH [Angiopep-2],much higher,higher,increased AAV8 transduction in the brain,,
YQQILTSMPSRNVIQISNDLENLRDLLHVL [Leptin 30 (61-90)],much higher,higher,increased AAV8 transduction in the brain,significantly enhanced AAV8 transduction,
